Measurements: a melting point compilation (Tetko et al.; mined from patent text by program, amines drawn as free bases though some values may be those of a salt)

| melting point | Compound |
| --- | --- |
| 195 to 197 °C | CCOP(=O)(CC(=O)N1c2ccccc2NC(=O)c2ccccc21)OCC |
| 139 to 141 °C | C=CCOc1ccccc1N(CC(O)CNC(C)C)S(C)(=O)=O (stereo not drawn) |
| 231 to 234 °C | CC(C)OC(=O)N1CCN(c2ccc3oc(-c4ccc(S(C)(=O)=O)cc4F)nc3c2)CC1 |
| 139 to 140 °C | CCCC(Oc1cc(OC)ccc1C(=O)c1ccc(OCc2nc(-c3ccccc3)oc2C)cc1)C(=O)O (stereo not drawn) |
| 125 °C | COc1nc(OC)nc(N(C(=O)Oc2ccccc2)C(=O)Oc2ccccc2)n1 |
| 173 °C | O=C(O)[C@@H]1[C@H](C(=O)O)N(Cc2ccccc2)C(=O)N1Cc1ccccc1 |
| 134 to 135 °C | CS(=O)(=O)c1ccc(-c2sc(-c3ccccc3Cl)nc2-c2cccc(F)c2)cc1 |
| 182 °C | CCOC(=O)NC(C)Cn1cc(-c2ccccc2)c2ccccc2c1=O (stereo not drawn) |
| 186 to 187 °C | N#CCCNC(=O)c1n[nH]cc1NC(=O)c1ccccc1 |
| 127 to 130 °C | O=C(Nc1cc(C(F)(F)F)ccc1N1CCc2ccccc21)c1ccccc1F |
| 110 to 113 °C | Cc1c(-c2cccnc2)n(CCCCCCCC(=O)O)c2ccccc12 |
| 82 to 87 °C | Cc1ccc2cccc(OCc3cc(N(C)C(=O)CN)ccc3Cl)c2n1 |
| 78 to 80 °C | CCc1cc(-c2ccc(F)cc2)c(O)cc1OC(CC)Oc1cc(NC(=O)CCCC(=O)N2CCOCC2)ccc1CCC(=O)O (stereo not drawn) |
| 150 to 151 °C | CC1=CC(=O)C(C(=O)Cc2ccccc2)C(=O)O1 (stereo not drawn) |
| 154 to 155 °C | COc1ccccc1S(=O)(=O)N(C)c1cccc2cc(C3=NCC(CCO)S3)[nH]c12 (stereo not drawn) |
| 102 to 106 °C | O=C(O)CC1CCCN(C(=O)c2ccc(NC(=O)COc3ccccc3)cc2)c2ccccc21 (stereo not drawn) |
| 129 to 133 °C | COc1cc(N2CCN(Cc3ccccc3)CC2)c2ncccc2c1C |
| 122 to 124 °C | CC(C)(O)COc1c(-c2ccc(S(C)(=O)=O)cc2)cnn(-c2ccc(F)c(Cl)c2)c1=O |
| 134 to 136 °C | O=C(c1cc2cc(OCc3ccccc3)ccc2[nH]1)C1(c2ccc(Cl)cc2)CCCC1 |
| 88 °C | COC(=O)c1cc(C(=O)c2ccccc2)ccc1OC |
| 185 to 186 °C | CC[C@@]12C[C@@](C)(O)[C@](O)(c3ccccc3)C[C@H]1CCc1cc(OCC(=O)NCCCC#N)ccc12 |
| 182 to 184 °C | O=Cc1c2ccccc2c(CO)c2ccccc12 |
| 99 to 100 °C | Nc1cc(C(=O)c2ccccc2)ccc1N1CCCCC1 |
| 120 to 123 °C | CCc1c(C)n(C)c2ccc(NC(=O)Nc3ccccn3)cc12 |
| 69 to 70 °C | O=C(OC1CCN(Cc2ccccc2)CC1)c1ccccc1Br |

Further lines, the molecule ahead of its results:

| Compound | melting point |
| --- | --- |
| CS(=O)(=O)c1cc(CC(=O)O)cc2c1NC(C(F)(F)F)CC2 (stereo not drawn) | 124 to 125 °C |
| Nc1cc2c(Nc3ccc(OCc4ccccn4)c(Cl)c3)ncnc2cn1 | 247 to 250 °C |
| O=C1NC(=O)C(Cc2ccc(N3CCC(NC[C@H](O)c4csc(C(F)(F)F)n4)CC3)cc2)S1 (stereo partly drawn) | 108 to 113 °C |
| CN(C)C(=O)Oc1ccc(CO)cc1 | 76 °C |
| CCN(CC)CC/C=C/c1ccc2c(Nc3ccc(Sc4nccn4C)c(Cl)c3)c(C#N)cnc2c1 | 200 to 210 °C |
| Cc1ccc(CCO)c(NCc2ccc3nc(NCCCN4CCOCC4)n(Cc4ncccc4O)c3c2)c1 | 192 °C |
| CN1C=CCC2C1N2S(=O)(=O)c1ccc(N)cc1 (stereo not drawn) | 188 to 190 °C |
| Nc1nc2c(Cl)cc(F)c(-c3ncc(C(F)(F)F)cc3Cl)c2s1 | 230 to 235 °C |
| CC1(CCCn2cc(C=O)c3ccccc32)OCCO1 | 52 to 55 °C |
| CCCCn1c(=O)n2cnnc2c2[nH]c(-c3cc(S(=O)(=O)N4CCN(C(C)(C)CO)CC4)ccc3OCCC)nc21 | 237 °C |
| COCSCCNC(=C[N+](=O)[O-])NCC(O)c1ccccc1 (stereo not drawn) | 107 to 110 °C |
| O=C(Nc1cc(C2CC2)n[nH]1)c1ccc[nH]1 | 207 to 209 °C |
| CC(C(N)=O)c1ccc(-n2cc(Cl)cn2)c(Cl)c1 (stereo not drawn) | 131 to 132 °C |
| c1cc(OC[C@H]2CO2)cc(-c2noc3ncccc23)c1 | 91 to 93 °C |
| NS(=O)(=O)c1cccc(-c2noc(-c3cnn4c(C5CC5)cc(-c5ccc(Cl)cc5)nc34)n2)c1 | 285 °C |
| COc1ccc(-n2nc(C(F)(F)F)nc2-c2ccc(S(C)(=O)=O)cc2)cc1 | 156 °C |
| O=C(Cc1ccccc1)N1CC2COCC2C1 (stereo not drawn) | 47.5 to 48.5 °C |
| Cc1nc2c(N)nc3c(c2n1CCCCNC(=O)N1CCOCC1)CCCC3 | 134 to 135 °C |
| C=CCN1CC(C)N(C(c2cccnc2)c2cccc(O)c2)CC1C (stereo not drawn) | 115 to 118 °C |
| Cc1ccccc1C(=O)N1CCc2nnc(Cl)cc2C1 | 123 to 126 °C |
| O=C(NCc1ccc(Cl)cc1)c1cnc2c(F)cc(-c3nccs3)cc2c1O | 296 to 298 °C |
| Cc1cc(=O)[nH]c2c(C)cc(Br)cc12 | > 300 °C |

| Compound | melting point |
| --- | --- |
| CS(=O)(=O)CCN1C(=O)CN=C(c2ccccc2)c2cc(Cl)ccc21 | 135 to 156 °C |
| Cc1cc(Oc2ccc3nc(COc4ccc(CC5SC(=O)NC5=O)cc4)n(C)c3c2)cc(C)c1NC(=O)Nc1ccc(C(F)(F)F)cc1 (stereo not drawn) | 206 to 208 °C |
| FC(F)Sc1nnc(-c2cnccn2)s1 | 113 to 115 °C |
| CCOC(=O)/C=C1/CO[C@](C)([C@H]2CC[C@H]3[C@@H](O[Si](C)(C)C(C)(C)C)CCC[C@@]32C)C1 | 101 °C |
| Cn1cc(C(=O)NCc2ccc(Cl)cc2)c(=O)c2cc(CN3CCOCC3)cc(C#CCN3CCS(=O)(=O)CC3)c21 | 220 to 222 °C |
| CCCn1nc2c(O)nc3ccccc3c2c1CC(C)(C)O | 294 to 296 °C |
| CCc1cc(C)cc(CC)c1C1C(=O)C2=CC(COCOC)CC2C1=O (stereo not drawn) | 155 to 156 °C |
| Cn1c2ccc(-c3nnn[nH]3)cc2c(=O)c2cccnc21 | 321 °C |
| CC(C(=O)N(C)C)n1nc(-c2ccccc2)c2c1CCCC2 (stereo not drawn) | 101 to 103 °C |
| CCCCCCCCCCCCCCCNC(=O)OCCOCCOCCOC(=O)NCc1ccccn1 | 58 to 62 °C |
| CCCCCc1ccc([C@H]2CC[C@H](c3ccc(C#N)cc3)CC2)cc1 | 80 °C |
| Cc1nnc(-c2ccc3occ(-c4ccc(S(C)=O)c(OC(F)(F)F)c4)c3c2)o1 (stereo not drawn) | 182 to 183 °C |
| COc1ccc2c(c1)CCN(C#N)C2c1cc(OC)c(OC)c(OC)c1 (single isomer, unassigned; (-)) | 132 to 134 °C |
| COc1c(Cl)cc(-c2ccc(=O)[nH]n2)cc1Cl | 245 to 251 °C |
| O=C(NC1CCN(CCc2ccc(F)cc2)C1)C12CC3CC(CC(C3)C1)C2 (stereo not drawn) | 114 to 116 °C |
| O=C(O)C1CSC(c2cccc(OCCO[N+](=O)[O-])c2)N1 (stereo not drawn) | 117 to 119 °C |
| CC(=O)c1ccc(C2c3cc(NC(=O)CC(C)(C)C)c(C)c(C)c3OC2(C)C)cc1 (stereo not drawn) | 195 to 196 °C |
| CN(Cc1ccc(OC(F)(F)F)cc1)C(=O)OC[C@@]1(C)Cn2cc([N+](=O)[O-])nc2O1 | 123 to 124 °C |
| C=CCNC(=O)N1CC(OCc2ccc(C(F)(F)F)cc2)C1 | 120 °C |
| COc1cc(-c2cnc3[nH]cc(C(=O)O)c3n2)cc(OC)c1OC | 238 °C |
| COc1cc(N2CCN(C)CC2)ccc1-c1cnn2c(N)c(-c3cccc(O)c3)cnc12 | 217 to 220 °C |
